Measured values as given in US20070161108A1, “Bob-1 specific T cells and methods to use” (priority 2004, published 2007).

How the values were obtained:
[1] = tested on: T-cell lines from an HIV-2 infected patient; assay: gamma-interferon-ELISPOT-assay, T-cell lines from an HIV-2 infected patient (FIG. 12); assay type: cell-based, human; details: PBMC stimulated by pool of 5 overlapping peptides aa151-210
Method: FIG. 12 Recognition of Bob-1 specific peptide aa171-190 by T-cell lines from an HIV-2 infected patient. PBMC from the patient had been stimulated by a pool of 5 overlapping peptides spanning aa151-210 of the Bob-1 sequence. Outgrowing cells were tested in a gamma-interferon-ELISPOT-assay of recognition of the peptide pool aa151-210 and of the individual peptides.

PBMC of a healthy person = assay: gamma-IFN-ELISPOT, in vitro stimulation of PBMC of a healthy person with peptide-loaded dendritic cells (FIG. 14); assay type: cell-based, human; details: pool 1 or pool 4 presented by autologous dendritic cells
Excerpt: Given are the number of peptide-specific T-cells after stimulation of the pool 1-specific or the pool 4-specific cell lines with the respective pools and the indicated peptides. […] The T-cell lines had been generated by stimulation of peripheral blood mononuclear cells (PBMC) with five different pools containing each five 20 amino acid (aa) long peptides with a 10 amino acid long overlap, corresponding to aa 1 to aa 256 of the Bob-1 protein. The peptide pools were presented by autologous dendritic cells that had been generated by a standard protocoll (Berger T G, Feuerstein B, Strasser E, Hirsch U, Schreiner D, Schuler G, Schuler-Thurner B. Large-scale generation of mature monocyte-derived dendritic cells for clinical application in cell factories. Journal of immunological methods 2002, 268: 131-140). […] Therefore, it represents a model for an in vivo induction of a Bob-1 specific T-cell response.
For this, PBMC of a healthy person were stimulated—as described above—with autologous dendritic cells loaded with a selection of Bob-1 derived peptides. […]

QAPLTYFPWPQPLSTLPTST [peptide aa171-190]
Recognition in gamma-interferon-ELISPOT [1]: specific recognition | Recognition by T-cell lines, or induction of Bob-1-specific T-cells, gamma-IFN-ELISPOT (PBMC of a healthy person): specific recognition
